A short description of experiment [1]: NIH-3T3 fibroblast cytotoxicity, dose response, cytotoxicity control, cell-based, fluorescence, Alamar Blue, secondary assay (AID 2327).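 Note: NIH-3T3 mouse fibroblasts cultured with fluconazole at 8 µg/mL.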 Type of experiment: functional.
For experiment [2], the system named is Streptococcus sp. 'group A'. Kind of experiment: growth inhibition of control SK(-) GAS strain, dose response, counter-screen for streptokinase expression inhibitor project, luminescence, kanamycin, BacTiterGlo, confirmation (AID 1900). In kind it is functional, organism-based. In general terms: The purpose of a counterscreen is to sort out artefacts and off-target activity.

Another experiment concerns the target T1, Streptokinase A (Streptococcus pyogenes serotype M1, UniProt P10520).
T1 sequence (P10520 whole entry): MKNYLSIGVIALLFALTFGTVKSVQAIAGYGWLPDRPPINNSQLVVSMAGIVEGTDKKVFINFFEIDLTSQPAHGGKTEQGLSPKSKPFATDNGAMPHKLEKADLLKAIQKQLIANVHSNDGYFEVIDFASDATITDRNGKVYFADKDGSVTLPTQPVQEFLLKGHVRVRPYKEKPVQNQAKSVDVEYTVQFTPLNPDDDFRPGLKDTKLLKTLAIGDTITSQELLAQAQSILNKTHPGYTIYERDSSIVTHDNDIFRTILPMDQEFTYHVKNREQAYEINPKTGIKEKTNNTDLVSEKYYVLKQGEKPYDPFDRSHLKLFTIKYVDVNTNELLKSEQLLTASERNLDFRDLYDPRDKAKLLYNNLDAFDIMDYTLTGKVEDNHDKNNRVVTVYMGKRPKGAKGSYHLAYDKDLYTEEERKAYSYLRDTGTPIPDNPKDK
Kind of experiment: S. pyogenes streptokinase expression inhibitors, potency, dose response, plasminogen activation absorbance, OD405 (AID 1914).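 Note: secreted streptokinase activity via plasminogen activation per viability signal from cell pellet.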 Type of experiment: functional, Streptococcus pyogenes M1 GAS.

The nature of experiment [3]: C. albicans growth with fluconazole, confirmation, fluorescence, retest (AID 2467). In kind it is functional, cell-based.
Experiment [4] in a line: microbe, parasite or virus in culture. In kind it is functional. To be noted: Mycobacterium tuberculosis.
Experiment [5] addresses T2, Serine/threonine-protein phosphatase (Candida dubliniensis (strain CD36 / CBS 7987 / NCPF 3949 / NRRLY-17841) (Yeast), UniProt B9W6M3).
T2 sequence (B9W6M3 whole entry): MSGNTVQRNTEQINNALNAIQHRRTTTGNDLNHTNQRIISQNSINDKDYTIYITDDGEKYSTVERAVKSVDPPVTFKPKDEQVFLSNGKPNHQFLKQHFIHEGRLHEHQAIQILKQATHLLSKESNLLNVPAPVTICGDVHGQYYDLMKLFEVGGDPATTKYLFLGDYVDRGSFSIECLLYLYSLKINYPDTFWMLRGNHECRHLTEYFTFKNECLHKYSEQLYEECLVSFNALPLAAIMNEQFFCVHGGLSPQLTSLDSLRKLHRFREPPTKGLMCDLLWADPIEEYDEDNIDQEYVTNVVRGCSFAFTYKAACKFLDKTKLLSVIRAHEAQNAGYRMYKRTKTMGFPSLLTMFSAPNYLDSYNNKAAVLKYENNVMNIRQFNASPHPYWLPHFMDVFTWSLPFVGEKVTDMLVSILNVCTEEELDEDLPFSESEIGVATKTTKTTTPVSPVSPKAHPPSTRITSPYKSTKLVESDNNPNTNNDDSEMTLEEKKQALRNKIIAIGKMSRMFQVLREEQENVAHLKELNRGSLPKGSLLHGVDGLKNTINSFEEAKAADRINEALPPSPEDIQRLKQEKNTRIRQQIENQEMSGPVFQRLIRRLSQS
The experiment can be described thus: calcineurin pathway inhibitors in yeast reporter, dose response, S. cerevisiae, CDRE-lacZ, luminescence, secondary (AID 2388).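 Note: yeast reporter cells carrying a calcineurin-responsive lacZ construct stimulated with calcium chloride; luminescent beta-galactosidase reporter signal in whole cells rather than isolated phosphatase activity; potency for inhibition where a drop in reporter signal means calcineurin blockade.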 Type of experiment: functional, cell-based.

In another experiment the test system is Streptococcus. The experiment can be described thus: Group A Streptococcus viability loss, dose response, counter-screen for streptokinase expression inhibitor project, luminescence, BacTiterGlo (AID 1915).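 Note: potency for reduction of bacterial viability or growth.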 Type of experiment: functional, organism-based.
The nature of experiment [6]: Luminescence Cell-Based Dose Retest to Confirm Inhibitors of Cancer Stem Cells. [Related pubchem assays (depositor defined):AID2717, AID2721]. To be noted: Homo sapiens. Type of experiment: functional.
In experiment [7] the target is ATP-dependent molecular chaperone HSP82 (Candida albicans (strain WO-1) (Yeast), UniProt C4YTQ8). Kind of experiment: loss of DOC-induced GRE-beta-galactosidase reporter signal, dose response, Hsp90 inhibitor project, S. cerevisiae, luminescence (AID 2400).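 Note: beta-galactosidase luminescence from glucocorticoid response element reporter as proxy for Hsp90 function; inhibitor potency where signal loss means Hsp90 inhibition.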 Type of experiment: functional, cell-based.
Chain of ATP-dependent molecular chaperone HSP82 (C4YTQ8 whole entry): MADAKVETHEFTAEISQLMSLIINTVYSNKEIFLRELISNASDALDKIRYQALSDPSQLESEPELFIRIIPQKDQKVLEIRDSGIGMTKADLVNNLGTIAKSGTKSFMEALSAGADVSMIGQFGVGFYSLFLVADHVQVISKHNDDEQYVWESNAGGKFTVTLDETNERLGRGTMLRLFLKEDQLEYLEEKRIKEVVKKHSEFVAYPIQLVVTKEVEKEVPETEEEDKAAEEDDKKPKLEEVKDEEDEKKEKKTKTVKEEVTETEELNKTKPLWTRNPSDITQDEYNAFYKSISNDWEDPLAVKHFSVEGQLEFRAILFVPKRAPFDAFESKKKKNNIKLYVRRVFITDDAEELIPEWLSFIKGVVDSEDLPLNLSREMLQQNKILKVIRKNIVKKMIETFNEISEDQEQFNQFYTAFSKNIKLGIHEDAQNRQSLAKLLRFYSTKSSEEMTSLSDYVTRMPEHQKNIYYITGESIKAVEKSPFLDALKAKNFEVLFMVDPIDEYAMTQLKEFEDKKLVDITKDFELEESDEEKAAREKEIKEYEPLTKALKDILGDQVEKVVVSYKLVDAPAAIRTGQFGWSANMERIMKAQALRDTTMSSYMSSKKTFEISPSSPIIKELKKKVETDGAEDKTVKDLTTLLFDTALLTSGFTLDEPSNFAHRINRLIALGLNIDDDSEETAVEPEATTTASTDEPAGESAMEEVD
In a further experiment the target is Melanocortin receptor 4 (Homo sapiens, UniProt P32245). In kind it is functional, cell-based.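 Note: Cell-based assay with luminescence read-out, confirmatory dose-response testing for agonist activity of biased ligands at MC4R; human U2OS cells with tagged receptor and beta-arrestin; potency of agonists that increase receptor coupling to beta-arrestin.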
Chain of Melanocortin receptor 4 (P32245 whole entry): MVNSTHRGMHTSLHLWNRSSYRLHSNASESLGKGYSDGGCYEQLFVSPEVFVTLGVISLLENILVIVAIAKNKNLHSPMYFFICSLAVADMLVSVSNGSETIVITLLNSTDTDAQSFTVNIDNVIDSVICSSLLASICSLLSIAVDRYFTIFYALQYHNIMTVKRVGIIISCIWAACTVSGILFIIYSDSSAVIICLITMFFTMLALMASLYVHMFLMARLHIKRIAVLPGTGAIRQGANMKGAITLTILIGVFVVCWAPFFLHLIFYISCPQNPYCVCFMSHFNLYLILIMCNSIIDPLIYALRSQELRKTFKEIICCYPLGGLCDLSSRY
Experiment [8] in a line: inhibitors of firefly luciferase expression or activity, dose response, H4 neuroglioma cells, luminescence (AID 1990). In kind it is functional, cell-based.
Experiment [9] concerns BJ. The experiment can be described thus: cytotoxicity toward BJ-TERT fibroblasts, dose response, cell-based, RAS-independent, luminescence (AID 1933). In kind it is functional. The note with it: Homo sapiens.
Experiment [10] is described as follows: cells. In kind it is functional, cell-based.
A short description of experiment [11]: Luminescence Cell-Based Dose Response HTS to Identify Inhibitors of 5'UTR Stem-Loop Driven Prion Protein mRNA Translation in H4 Neuroglioblastoma Cells. [Related pubchem assays: 1827 (Project Summary), 1813 (Primary HTS)]. Type of experiment: functional.
Experiment [12] can be described thus: inhibitors of SNCA 5'UTR-driven reporter translation, confirmation, H4 neuroglioma cells, luminescence (AID 1988). Type of experiment: functional, cell-based.
The test system of experiment [13] is BJ. Kind of experiment: cells. The note with it: Homo sapiens. In kind it is functional, cell-based.
A short description of experiment [14]: cells. Type of experiment: functional, cell-based. The source holds these as a separate data set.
Experiment [15] deals with BJ. Kind of experiment: cytotoxicity toward BJ-TERT-LT-ST fibroblasts, dose response, cell-based, RAS-independent, luminescence (AID 1935).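 Note: BJ fibroblasts immortalized with TERT plus LT and ST oncogenes.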 To be noted: Homo sapiens. In kind it is functional.
Experiment [16] in a line: cytotoxicity toward DRD oncogenic fibroblasts, dose response, cell-based, non-viral oncogenic, luminescence (AID 1934). In kind it is functional. To be noted: Homo sapiens.
The test system of experiment [17] is BJ. Kind of experiment: cytotoxicity toward Ras-transformed BJeLR fibroblasts, dose response, cell-based, alamar blue fluorescence, cherrypicked samples (AID 2631).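 Note: confirmatory dose-response assay in RAS-dependent BJ fibroblasts engineered with TERT, LT and ST, with cytotoxicity read by fluorescence.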 Type of experiment: functional. To be noted: Homo sapiens. On the technique in general: The colour change of resazurin is a common sign of viable cells or microbes.
Another experiment deals with INS1. The experiment can be described thus: beta cell apoptosis inhibitors, cytokine rescue, dose response, luminescence, retest (AID 449756).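 Note: cell death triggered by IL-1 beta plus TNF-alpha plus IFN-gamma mixture; protective hits raise ATP signal compared with cytokine alone wells.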 Type of experiment: functional, cell-based. The note with it: Rattus norvegicus.
For another experiment, the target named is T3, Protein skinhead-1 (Caenorhabditis elegans, UniProt P34707).
T3 sequence (P34707 whole entry): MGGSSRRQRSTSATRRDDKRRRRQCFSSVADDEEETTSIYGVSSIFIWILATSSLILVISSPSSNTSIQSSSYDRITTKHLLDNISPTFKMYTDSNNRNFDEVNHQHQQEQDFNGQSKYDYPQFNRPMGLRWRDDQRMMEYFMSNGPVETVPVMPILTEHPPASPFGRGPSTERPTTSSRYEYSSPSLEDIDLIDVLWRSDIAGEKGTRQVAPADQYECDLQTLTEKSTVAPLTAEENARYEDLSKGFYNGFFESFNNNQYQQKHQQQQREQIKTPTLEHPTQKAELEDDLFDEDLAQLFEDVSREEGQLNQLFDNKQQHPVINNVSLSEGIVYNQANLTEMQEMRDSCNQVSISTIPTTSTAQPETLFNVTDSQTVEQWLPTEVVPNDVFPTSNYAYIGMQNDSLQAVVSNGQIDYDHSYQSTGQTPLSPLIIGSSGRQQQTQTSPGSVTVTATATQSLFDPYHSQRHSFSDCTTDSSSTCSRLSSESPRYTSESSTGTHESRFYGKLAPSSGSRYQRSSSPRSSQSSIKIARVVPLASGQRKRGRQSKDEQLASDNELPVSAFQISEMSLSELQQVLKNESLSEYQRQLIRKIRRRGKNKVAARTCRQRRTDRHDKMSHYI
In kind it is functional.

The target of a further experiment is Protein Wnt-3a (Mus musculus, UniProt P27467). Kind of experiment: Wnt3a-driven reporter signaling inhibition, dose response, selectivity assay for Gli-SUFU antagonist project, Wnt-LIGHT cells, luminescence (AID 651570).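 Note: Wnt-LIGHT reporter cells stimulated with conditioned medium from Wnt3a-producing cells.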 In kind it is functional. To be noted: read-out: IC50_Mean.
Chain of Protein Wnt-3a (P27467 whole entry, the tested form may be a part): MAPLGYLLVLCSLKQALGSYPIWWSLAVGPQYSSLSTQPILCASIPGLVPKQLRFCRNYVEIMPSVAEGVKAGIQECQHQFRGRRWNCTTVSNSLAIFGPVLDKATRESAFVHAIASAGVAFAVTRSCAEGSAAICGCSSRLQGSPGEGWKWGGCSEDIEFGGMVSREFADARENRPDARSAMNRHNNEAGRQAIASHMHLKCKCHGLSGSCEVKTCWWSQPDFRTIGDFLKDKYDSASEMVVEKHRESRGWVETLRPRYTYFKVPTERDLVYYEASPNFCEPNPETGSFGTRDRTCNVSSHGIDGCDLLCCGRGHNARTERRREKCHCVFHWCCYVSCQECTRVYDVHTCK
In experiment [18] the target is Photoreceptor-specific nuclear receptor (Homo sapiens, UniProt Q9Y5X4). In kind it is functional, cell-based.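 Note: CHO-S cells with Gal4-NCOR and VP16-NR2E3 two-hybrid luciferase reporter.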
Chain of Photoreceptor-specific nuclear receptor (Q9Y5X4 whole entry, the tested form may be a part): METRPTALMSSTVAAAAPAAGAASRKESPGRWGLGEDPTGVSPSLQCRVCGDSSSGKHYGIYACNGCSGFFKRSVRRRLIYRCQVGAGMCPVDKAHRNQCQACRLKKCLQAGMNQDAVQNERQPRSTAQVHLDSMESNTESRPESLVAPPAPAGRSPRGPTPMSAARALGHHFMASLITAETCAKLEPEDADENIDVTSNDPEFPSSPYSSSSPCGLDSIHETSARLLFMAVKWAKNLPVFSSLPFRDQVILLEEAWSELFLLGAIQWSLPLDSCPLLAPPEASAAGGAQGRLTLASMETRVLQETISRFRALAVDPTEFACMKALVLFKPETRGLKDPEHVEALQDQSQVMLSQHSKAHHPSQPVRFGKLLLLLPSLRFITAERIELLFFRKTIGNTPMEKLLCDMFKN
For experiment [19], the target named is 26S proteasome non-ATPase regulatory subunit 14 (Homo sapiens, UniProt O00487). Kind of experiment: inhibition of proteasome subunit RPN11 – biochemical, fluorescence polarization, uHTS hits, confirmation (AID 602368). In kind it is functional.
Chain of 26S proteasome non-ATPase regulatory subunit 14 (O00487 whole entry): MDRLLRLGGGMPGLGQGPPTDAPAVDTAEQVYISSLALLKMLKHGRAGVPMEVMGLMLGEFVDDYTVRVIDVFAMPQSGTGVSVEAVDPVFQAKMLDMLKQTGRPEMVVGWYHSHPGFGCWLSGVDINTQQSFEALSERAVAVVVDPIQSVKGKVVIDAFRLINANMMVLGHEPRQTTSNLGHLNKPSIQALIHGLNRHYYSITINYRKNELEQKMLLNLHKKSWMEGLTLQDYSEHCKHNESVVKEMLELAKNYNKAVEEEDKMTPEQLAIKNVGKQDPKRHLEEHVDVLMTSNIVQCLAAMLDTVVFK
Experiment [20] concerns the target 72 kDa type IV collagenase (Homo sapiens, UniProt P08253). The experiment can be described thus: Dose Response validation of uHTS RPN11 inhibitor hits using a MMP-2 Fluorescence assay. Type of experiment: functional.
The next experiment has as its target Prothrombin (Bos taurus, UniProt P00735). Kind of experiment: thrombin inhibition, dose response, biochemical, fluorescence polarization, uHTS hits (AID 602369). In kind it is functional.

Each structure is given as a SMILES string. Active and inactive are the calls of the source. Cut-off read from the data, not from the text of the source, for most assays here: actives have a measured EC50 and inactives only a lower limit.

This note sets out measurements from ChEMBL document CHEMBL1201862, “PubChem BioAssay data set” (2004).

Chain of 72 kDa type IV collagenase (P08253 whole entry): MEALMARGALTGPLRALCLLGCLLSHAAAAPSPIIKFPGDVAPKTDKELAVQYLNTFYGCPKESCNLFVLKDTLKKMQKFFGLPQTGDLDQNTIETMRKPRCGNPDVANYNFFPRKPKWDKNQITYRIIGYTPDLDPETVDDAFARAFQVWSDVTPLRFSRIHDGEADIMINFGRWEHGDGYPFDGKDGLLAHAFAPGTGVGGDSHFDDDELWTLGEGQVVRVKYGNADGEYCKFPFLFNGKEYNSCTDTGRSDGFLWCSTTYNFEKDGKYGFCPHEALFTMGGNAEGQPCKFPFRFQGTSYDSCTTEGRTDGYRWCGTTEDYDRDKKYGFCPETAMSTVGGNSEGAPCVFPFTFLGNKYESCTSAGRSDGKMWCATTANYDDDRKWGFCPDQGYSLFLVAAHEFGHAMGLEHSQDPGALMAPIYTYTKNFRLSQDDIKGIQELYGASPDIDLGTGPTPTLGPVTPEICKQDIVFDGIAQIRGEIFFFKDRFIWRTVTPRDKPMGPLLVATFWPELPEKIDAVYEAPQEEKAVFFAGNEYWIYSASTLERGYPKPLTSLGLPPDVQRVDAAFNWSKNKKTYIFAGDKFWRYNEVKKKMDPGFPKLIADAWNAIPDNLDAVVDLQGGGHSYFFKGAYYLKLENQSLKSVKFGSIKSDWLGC

The EC50 is the concentration at which the effect is half-maximal. For orientation: AC50 means the concentration giving half of the maximal activity seen. As to `O=C(Nc1nc2ccc(SC(F)F)cc2s1)c1ccc(NS(=O)(=O)c2ccc(F)c(F)c2)cc1`, the EC50 in experiment [1] was 92.6 µM (active); in experiment [2] it was 2.68 µM (active); on Streptokinase A, > 50 µM (not active); in experiment [3] it was 2.18 µM (active); in [5], > 180 µM (inactive); in the experiment on Streptococcus, 2.79 µM (active). The EC50 in [7] was > 150 µM (inactive); on Melanocortin receptor 4 it was > 89.2 µM (inactive). In addition, the CC50 in experiment [4] was 20.1 µM (active). For the same compound, the AC50 in experiment [6] is 2.45 µM (active).
`C/C(=N\Nc1nc2ccccc2[nH]1)c1ccccn1`: the EC50 in [8] is 0.306 µM (active); in the experiment with BJ [9] it was 0.672 µM (active); in “cells [10]”, 6.03 µM (active); in [11] it was 0.154 µM (active); in experiment [12] it was 0.107 µM (active); in the experiment on BJ [13], 4.7 µM (active). Moreover, the EC50 in “cells [14]” was 13.8 µM (active); in the experiment with BJ [15], 1.38 µM (inconclusive); in [16], 2.24 µM (active); with BJ [17] it was < 0.104 µM (active). In addition, the half-maximal activity concentration (AC50) in the experiment on INS1 was < 0.195 µM (active).
In the case of `CC(=O)Nc1cccc(OCC(=O)/C=C2\N(C)c3ccccc3C2(C)C)c1`, the IC50 on Protein skinhead-1 is > 100 µM (inactive); on Protein Wnt-3a, 50 µM (inactive).
With `COC(CNC(=O)CSCc1nc(-c2ccc(SC)cc2)oc1C)OC`, in experiment [18], the IC50 is 2.23 µM (active).
Take `Cc1ccc(NC2=NC(=O)/C(=C/c3cccs3)S2)cc1C`: the IC50 in [19] is 25.9 µM (active); in [20], > 100 µM (inactive); on Prothrombin, 37.8 µM (active).
